Where two headings read alike, the source gives them in different places.
Experiments:
[1] = test system: Key Broadleaf Weed and Crop Species; test: Post-emergent Test II herbicidal activity (Table 5); assay type: in vivo; conditions: post-emergence, 336 h, 14 days after application; for pest or weed control at 70 g/ha: application rate 70 g ai/ha; for pest or weed control at 140 g/ha: application rate 140 g ai/ha
In short: (§1)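 Foliar application at 187 L/ha to greenhouse-grown seedlings (first or second true leaf); subirrigation thereafter. Visual 0–100% injury at 14 d relative to untreated plants.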

[2] = test system: Key Grass and Sedge Weeds as well as Grass Crops; test: Post-emergent Test II herbicidal activity (Table 6); assay type: in vivo; conditions: post-emergence, 336 h; for pest or weed control at 70 g/ha: 70 g ai/ha; for pest or weed control at 140 g/ha: 140 g ai/ha
In short: as §1

[3] = ABUTH: velvetleaf (Abutilon theophrasti), read-out: Visual Growth Reduction (%) 14 Days After Application, ABUTH
[4] = AMARE: redroot pigweed (Amaranthus retroflexus), read-out: Visual Growth Reduction (%) 14 Days After Application, AMARE
[5] = BRSNN: oilseed-rape, canola (Brassica napus), read-out: Visual Growth Reduction (%) 14 Days After Application, BRSNN
[6] = CHEAL: lambsquarters (Chenopodium album), read-out: Visual Growth Reduction (%) 14 Days After Application, CHEAL
[7] = EPHHL: wild poinsettia (Euphorbia heterophylla), read-out: Visual Growth Reduction (%) 14 Days After Application, EPHHL
[8] = HELAN: sunflower (Helianthus annuus), read-out: Visual Growth Reduction (%) 14 Days After Application, HELAN
[9] = VIOTR: wild pansy (Viola tricolor), read-out: Visual Growth Reduction (%) 14 Days After Application, VIOTR
[10] = CYPES: yellow nutsedge (Cyperus esculentus), read-out: Visual Growth Reduction (%) 14 Days After Application, CYPES
[11] = DIGSA: crabgrass (Digitaria sanguinalis), read-out: Visual Growth Reduction (%) 14 Days After Application, DIGSA
[12] = ECHCG: barnyardgrass (Echinochloa crus-galli), read-out: Visual Growth Reduction (%) 14 Days After Application, ECHCG
[13] = ORYSA: rice (Oryza sativa), crop, read-out: Visual Growth Reduction (%) 14 Days After Application, ORYSA
[14] = SETFA: giant foxtail (Setaria faberi), read-out: Visual Growth Reduction (%) 14 Days After Application, SETFA
[15] = SORVU: grain sorghum (Sorghum vulgare), read-out: Visual Growth Reduction (%) 14 Days After Application, SORVU
[16] = TRZSS (wheat, Triticum aestivum), crop, read-out: Visual Growth Reduction (%) 14 Days After Application, TRZSS
[17] = ZEAMX: maize, corn (Zea mays), crop, read-out: Visual Growth Reduction (%) 14 Days After Application, ZEAMX

**Q.** Which pest or weed control at 70 g/ha [1, 3] does the source give for `COC(=O)c1nc(-c2ccc(C(F)F)cc2)c(F)c(N)c1Cl` [Compound 209] here?
**A.** Its pest or weed control at 70 g/ha is 95 to 100%.

**Q.** What about the pest or weed control at 140 g/ha [1, 3] of the same compound?
**A.** The pest or weed control at 140 g/ha was 95 to 100%.

**Q.** What about the pest or weed control at 70 g/ha [1, 4] of the same compound?
**A.** The pest or weed control at 70 g/ha was 95 to 100%.

**Q.** And the pest or weed control at 140 g/ha [1, 4]?
**A.** The pest or weed control at 140 g/ha was 95 to 100%.

**Q.** What about the pest or weed control at 70 g/ha [1, 5] of the same compound?
**A.** The pest or weed control at 70 g/ha was 85 to 94%.

**Q.** What about the pest or weed control at 140 g/ha [1, 5] of the same compound?
**A.** Its pest or weed control at 140 g/ha is 85 to 94%.

**Q.** What about the pest or weed control at 70 g/ha [1, 6] of the same compound?
**A.** Its pest or weed control at 70 g/ha is 95 to 100%.

**Q.** And the pest or weed control at 140 g/ha [1, 6]?
**A.** The pest or weed control at 140 g/ha was 95 to 100%.

**Q.** What about the pest or weed control at 70 g/ha [1, 7] of the same compound?
**A.** The pest or weed control at 70 g/ha was 95 to 100%.

**Q.** What about the pest or weed control at 140 g/ha [1, 7] of the same compound?
**A.** The pest or weed control at 140 g/ha was 95 to 100%.

**Q.** And the pest or weed control at 70 g/ha [1, 8]?
**A.** Its pest or weed control at 70 g/ha is 95 to 100%.

**Q.** What about the pest or weed control at 140 g/ha [1, 8] of the same compound?
**A.** Its pest or weed control at 140 g/ha is 95 to 100%.

**Q.** And the pest or weed control at 70 g/ha [1, 9]?
**A.** The pest or weed control at 70 g/ha was 0 to 29%.

**Q.** And the pest or weed control at 140 g/ha [1, 9]?
**A.** The pest or weed control at 140 g/ha was 0 to 29%.

**Q.** And the pest or weed control at 70 g/ha [2, 10]?
**A.** Its pest or weed control at 70 g/ha is 85 to 94%.

**Q.** And the pest or weed control at 140 g/ha [2, 10]?
**A.** Its pest or weed control at 140 g/ha is 85 to 94%.

**Q.** What about the pest or weed control at 70 g/ha [2, 11] of the same compound?
**A.** The pest or weed control at 70 g/ha was 45 to 59%.

**Q.** What about the pest or weed control at 140 g/ha [2, 11] of the same compound?
**A.** The pest or weed control at 140 g/ha was 60 to 74%.

**Q.** And the pest or weed control at 70 g/ha [2, 12]?
**A.** The pest or weed control at 70 g/ha was 95 to 100%.

**Q.** And the pest or weed control at 140 g/ha [2, 12]?
**A.** The pest or weed control at 140 g/ha was 95 to 100%.

**Q.** What about the pest or weed control at 70 g/ha [2, 13] of the same compound?
**A.** The pest or weed control at 70 g/ha was 0 to 29%.

**Q.** And the pest or weed control at 140 g/ha [2, 13]?
**A.** The pest or weed control at 140 g/ha was 0 to 29%.

**Q.** What about the pest or weed control at 70 g/ha [2, 14] of the same compound?
**A.** The pest or weed control at 70 g/ha was 45 to 59%.

**Q.** What about the pest or weed control at 140 g/ha [2, 14] of the same compound?
**A.** Its pest or weed control at 140 g/ha is 75 to 84%.

**Q.** And the pest or weed control at 70 g/ha [2, 15]?
**A.** The pest or weed control at 70 g/ha was 95 to 100%.

**Q.** What about the pest or weed control at 140 g/ha [2, 15] of the same compound?
**A.** The pest or weed control at 140 g/ha was 95 to 100%.

**Q.** What about the pest or weed control at 70 g/ha [2, 16] of the same compound?
**A.** The pest or weed control at 70 g/ha was 0 to 29%.

**Q.** And the pest or weed control at 140 g/ha [2, 16]?
**A.** The pest or weed control at 140 g/ha was 0 to 29%.

**Q.** And the pest or weed control at 70 g/ha [2, 17]?
**A.** The pest or weed control at 70 g/ha was 75 to 84%.

**Q.** What about the pest or weed control at 140 g/ha [2, 17] of the same compound?
**A.** Its pest or weed control at 140 g/ha is 85 to 94%.

— patent US9113629B2, “4-amino-6-(4-substituted-phenyl)-picolinates and 6-amino-2-(4-substituted-phenyl)-pyrimidine-4-carboxylates and their use as herbicides” (DOW AGROSCIENCES LLC, priority 2013, dated 2015)
